What was measured:
Assay type in all cases: cell-based
[1] = system: PCSK9; test: PCSK9 ELISA on HepG2 culture medium; conditions: HepG2 cells, 24 hr
Description: (§1) HepG2 cells (ATCC, Cat.: HB-8065) were maintained in Growth medium-Eagle's Minimum Essential Medium (Corning, 10-010-CVR), 10% FBS (Gibco, 10099-141), Penicillin (100 units/mL), Streptomycin ([…]). HepG2 cells were incubated at 37° C., 5% CO2. HepG2 cells were plated in flat bottom 96-well plates (Corning, 3599) at 40,000 cells/well in 100 μL of growth media. After an overnight incubation, the culture media were changed to serum-free OptiMEM media (Gibco, 31985-062), 90 μL/well. Vehicle, PF-06446846 hydrochloride, berberine, or test compound was added to the culture media, 10 μL/well. After 24 hr medium was harvested, and 10 μL of the medium were used for the PCSK9 ELISA (R&D Systems, SPC900).

[2] = system: PCSK9 mRNA; test: RT-Q-PCR analysis of PCSK9 mRNA in HepG2 cells; conditions: Homo sapiens, 24 h, normalized to GAPDH, read-out: HepG2 Q-PCR PCSK9 mRNA level decrease (10 μM)
Description: HepG2 cells (ATCC, Cat.: HB-8065) were maintained in Growth medium-Eagle's Minimum Essential Medium (Corning, 10-010-CVR), 10% FBS (Gibco, 10099-141), Penicillin (100 units/mL), Streptomycin ([…]). HepG2 cells were incubated at 37° C., 5% CO2.
Cells were cultured in growth medium as described above and treated with the vehicle, Berberine or test compound for 24 h. The RNA was extracted using the Total RNA mini Kit (Tiangen, Beijing, China) according to the manufacturer's instructions. Reverse transcription was carried out using the High-Capacity cDNA reverse transcription kit (Thermo Fisher Scientific). Quantitative real-time PCR was performed using a reaction mixture containing cDNA, specific primers [PCSK9, 5′-[…]-3′ (forward) and 5′-[…]-3′ (reverse); GAPDH, 5′-[…]-3′ (forward) and 5′-[…]-3′ (reverse)] and Maxima SYBR Green/ROX qPCR Master Mix (Thermo Fisher Scientific). PCR amplification was carried out in a Real-Time PCR System. The real-time PCR conditions were 37° C. 10 min; 95° C. 10 min; 95° C. 15 s, 60° C. 30 s, 72° C. 30 s, 40 cycle. The amount of % RNA was normalized to the GAPDH level in the same samples.

[3] = system: HepG2 cells; test: Cell viability assay (HepG2 Survival assay, CellTiter-Glo); conditions: 24 hr, cellular ATP levels
Description: as §1, with “black clear” for “flat”, “3063)” for “3599)”, “cellular ATP levels” for “medium was harvested, and 10 μL of the medium”, “measured using CellTiter-Glo® 2.0 Assay (Promega, G9242).” for “used for the PCSK9 ELISA (R&D Systems, SPC900).”

## CN(Cc1ccccc1)C(=O)CN(CC(=O)Nc1ccc(Oc2ccc(F)cc2)cc1)C(=O)c1cc2cc(F)ccc2[nH]1 [Compound 201-53]
[1]
  HepG2 PCSK9 ELISA (10 μM) % inhibition: 50%
[2]
  inhibition at 10 µM: 80%
[3]
  HepG2 Survival assay (10 μM): 100%

## CN(Cc1ccccc1F)C(=O)CN(CC(=O)Nc1ccc(Oc2ccc(F)c(F)c2)cc1)C(=O)c1cc2ccccc2o1 [Compound 201-97]
[1]
  HepG2 PCSK9 ELISA (10 μM) % inhibition: 48%
[2]
  inhibition at 10 µM: 37%
[3]
  HepG2 Survival assay (10 μM): 100%

## CN(Cc1ccccc1F)C(=O)CN(CC(=O)Nc1ccc(Oc2ccc(F)cc2)cc1)C(=O)c1cc2ccccc2o1 [Compound 201-85]
[1]
  HepG2 PCSK9 ELISA (10 μM) % inhibition: 46%
[2]
  inhibition at 10 µM: 70%
[3]
  HepG2 Survival assay (10 μM): 100%

## CN(Cc1ccccc1F)C(=O)CN(CC(=O)Nc1ccc(Oc2ccccc2)cc1)C(=O)c1cc2ccccc2o1 [Compound 201-91]
[1]
  HepG2 PCSK9 ELISA (10 μM) % inhibition: 40%
[2]
  inhibition at 10 µM: 58%
[3]
  HepG2 Survival assay (10 μM): 100%

## O=C(CN(CC(=O)Nc1ccc(Oc2ccc(C(F)(F)F)cc2)cc1)C(=O)c1ccc(C(F)(F)F)o1)NCc1ccccc1 [Compound 201-209]
[1]
  HepG2 PCSK9 ELISA (10 μM) % inhibition: 91%
[3]
  HepG2 Survival assay (10 μM): 92%

## CN(Cc1ccccc1)C(=O)CN(CC(=O)Nc1ccc(Oc2ccc(F)cc2)cc1)C(=O)c1cc2c(F)cccc2[nH]1 [Compound 201-49]
[1]
  HepG2 PCSK9 ELISA (10 μM) % inhibition: 50%
[2]
  inhibition at 10 µM: 77%
[3]
  HepG2 Survival assay (10 μM): 100%

## O=C(CN(CC(=O)Nc1ccc(Oc2ccc(F)c(F)c2)cc1)C(=O)c1cc2cccc(F)c2[nH]1)Nc1ccccc1 [Compound 201-274]
[1]
  HepG2 PCSK9 ELISA (10 μM) % inhibition: 77%
[2]
  inhibition at 10 µM: 88%
[3]
  HepG2 Survival assay (10 μM): 98%

## N#Cc1cccc2cc(C(=O)N(CC(=O)Nc3ccc(Oc4ccc(C(F)(F)F)cc4)cc3)CC(=O)NC3CCCC3)[nH]c12 [Compound 201-237]
[1]
  HepG2 PCSK9 ELISA (10 μM) % inhibition: 72%
[2]
  inhibition at 10 µM: 77%
[3]
  HepG2 Survival assay (10 μM): 98%

## O=C(CN(CC(=O)Nc1ccc(Oc2ccc(F)cc2)cc1)C(=O)c1cc2cccc(F)c2[nH]1)NCc1ccccc1F [Compound 201-45]
[1]
  HepG2 PCSK9 ELISA (10 μM) % inhibition: 60%
[2]
  inhibition at 10 µM: 80%
[3]
  HepG2 Survival assay (10 μM): 100%

## CC(C)c1ccc(Oc2ccc(NC(=O)CN(CC(=O)Nc3ccccc3)C(=O)c3ccc(C(F)(F)F)o3)cc2)cc1 [Compound 201-261]
[1]
  HepG2 PCSK9 ELISA (10 μM) % inhibition: 60%
[3]
  HepG2 Survival assay (10 μM): 99%

## CN(Cc1ccccc1)C(=O)CN(CC(=O)N(C)c1ccc(Oc2ccccc2)cc1)C(=O)c1cc2c(F)cccc2[nH]1 [Compound 201-52]
[1]
  HepG2 PCSK9 ELISA (10 μM) % inhibition: 45%
[2]
  inhibition at 10 µM: 79%
[3]
  HepG2 Survival assay (10 μM): 100%

## CN(Cc1ccccc1F)C(=O)CN(CC(=O)Nc1ccc(Oc2ccc(F)c(F)c2)cc1)C(=O)c1ccco1 [Compound 201-133]
[1]
  HepG2 PCSK9 ELISA (10 μM) % inhibition: 98%
[2]
  inhibition at 10 µM: 92%
[3]
  HepG2 Survival assay (10 μM): 100%

## CN(Cc1ccccc1F)C(=O)CN(CC(=O)Nc1ccc(Oc2ccccc2)cc1)C(=O)c1ccco1 [Compound 201-127]
[1]
  HepG2 PCSK9 ELISA (10 μM) % inhibition: 74%
[2]
  inhibition at 10 µM: 92%
[3]
  HepG2 Survival assay (10 μM): 90%

## O=C(CN(CC(=O)Nc1ccc(Oc2ccccc2)cc1)C(=O)c1cc2cccc(F)c2[nH]1)NCc1ccccc1F [Compound 201-47]
[1]
  HepG2 PCSK9 ELISA (10 μM) % inhibition: 70%
[2]
  inhibition at 10 µM: 90%
[3]
  HepG2 Survival assay (10 μM): 99%

## CN(Cc1ccccc1F)C(=O)CN(CC(=O)Nc1ccc(Oc2ccc(F)cc2)cc1)C(=O)c1cc2cccc(F)c2[nH]1 [Compound 201-69]
[1]
  HepG2 PCSK9 ELISA (10 μM) % inhibition: 80%
[2]
  inhibition at 10 µM: 78%
[3]
  HepG2 Survival assay (10 μM): 92%

## O=C(CN(CC(=O)NC1Cc2ccccc2C1)C(=O)c1cc2cccc(F)c2[nH]1)Nc1ccc(Oc2ccccc2)cc1 [Compound 201-15]
[1]
  HepG2 PCSK9 ELISA (10 μM) % inhibition: 46%
[2]
  inhibition at 10 µM: 95.2%
[3]
  HepG2 Survival assay (10 μM): 100%
